Results: the NIST ThermoML archive (doi:10.1016/j.fluid.2006.07.015)
± gives the expanded uncertainty stated by the source.

Key:
[1] = activity coefficient (dimensionless); of the first substance listed, at infinite dilution; xn = mol fraction of the nth substance listed; details: 101 kPa, Liquid, Chromatography, x1 = 0
[2] = Crystal; visual observation

activity coefficient ([1]; 373.15 K) | activity coefficient ([1]; 388.15 K) | activity coefficient ([1]; 403.15 K) | activity coefficient ([1]; 418.15 K) | activity coefficient ([1]; 433.15 K) | Normal melting temperature [2] [°C] | SMILES
0.456 ± 0.033 | 0.457 ± 0.033 | 0.459 ± 0.033 | 0.46 ± 0.033 | 0.462 ± 0.033 | – | CCCCCCCCCCCC [dodecane] + CCCCCCCCCCCCCCCCCCC(CCCCCCCCCCCCCCCCCC)CCCCC(CCCCCCCCCCCCCCCCCC)CCCCCCCCCCCCCCCCCC
0.267 ± 0.036 | 0.273 ± 0.036 | 0.273 ± 0.036 | 0.272 ± 0.036 | 0.275 ± 0.036 | – | CC1CCCCC1 [methylcyclohexane] + CCCCCCCCCCCCCCCCCCC(CCCCCCCCCCCCCCCCCC)CCCCC(CCCCCCCCCCCCCCCCCC)CCCCCCCCCCCCCCCCCC
0.445 ± 0.033 | 0.443 ± 0.033 | 0.438 ± 0.033 | 0.431 ± 0.034 | 0.425 ± 0.034 | – | C#CCCCCCCC [1-nonyne] + CCCCCCCCCCCCCCCCCCC(CCCCCCCCCCCCCCCCCC)CCCCC(CCCCCCCCCCCCCCCCCC)CCCCCCCCCCCCCCCCCC
0.391 ± 0.034 | 0.392 ± 0.034 | 0.394 ± 0.034 | 0.396 ± 0.034 | 0.4 ± 0.034 | – | CC(C)CC(C)C [2,4-dimethylpentane] + CCCCCCCCCCCCCCCCCCC(CCCCCCCCCCCCCCCCCC)CCCCC(CCCCCCCCCCCCCCCCCC)CCCCCCCCCCCCCCCCCC
– | – | – | – | – | 72 ± 6 | CCCCCCCCCCCCCCCCCCC(CCCCCCCCCCCCCCCCCC)CCCCC(CCCCCCCCCCCCCCCCCC)CCCCCCCCCCCCCCCCCC [19,24-dioctadecyldotetracontane]
0.269 ± 0.036 | 0.281 ± 0.036 | 0.283 ± 0.036 | 0.287 ± 0.036 | 0.288 ± 0.036 | – | C1CCCCCCCCC1 [cyclodecane] + CCCCCCCCCCCCCCCCCCC(CCCCCCCCCCCCCCCCCC)CCCCC(CCCCCCCCCCCCCCCCCC)CCCCCCCCCCCCCCCCCC
0.26 ± 0.036 | 0.268 ± 0.036 | 0.269 ± 0.036 | 0.266 ± 0.036 | 0.27 ± 0.036 | – | C1CCC2CCCC2C1 (stereo unspecified) [1H-indene, octahydro-] + CCCCCCCCCCCCCCCCCCC(CCCCCCCCCCCCCCCCCC)CCCCC(CCCCCCCCCCCCCCCCCC)CCCCCCCCCCCCCCCCCC
